row,Compound,melting point [°C]
1,CCCc1c(OCCCCCCC(=O)NCCCCc2cccnc2)ccc(C(C)=O)c1O,57 to 59
2,COc1cccc2c1C13CCN(C(=O)C4CC4)C(C2)C1(O)CCC(=O)C3 (configuration not stated),223 to 225
3,COc1ccc(C(=O)Nc2ccccc2C(=O)NCCCC(=O)O)c(O)c1,201 to 203
4,O=[N+]([O-])c1ccc(OCc2ccccc2)c2cnsc12,158 to 160
5,O=C(NNc1ccc(NC(=S)NCc2ccccc2)cc1)c1ccc(Cl)cc1,197 to 199
6,CNC1=NS(=O)N=C1NCCSCc1ccc(CN(C)C)o1 (configuration not stated),86 to 92
7,CCN(CC)c1ccc(C2(N(c3ccccc3)c3ccc(N(C)C)cc3)OC(=O)c3ccccc32)c(C)c1 (configuration not stated),154 to 156
8,O=C(c1ccc(Br)cc1Cl)N1Cc2cccn2Cc2ccccc21,77 to 80
9,NC(=O)C1CCc2[nH]c3cc(Cl)c(Cl)cc3c2C1 (configuration not stated),199 to 200
10,CCN(CC)CC=CC(=O)Nc1ccc2ncnc(Nc3cccc(Br)c3)c2c1,196 to 199
11,Oc1ccc(-c2cnc(S)o2)cc1O,215 to 218
12,COC(=O)c1cnc(Cl)c(C)n1,49 to 50
13,Cc1cc(C(=O)Nc2cc(Oc3ccc4nc(NC(=O)C5CC5)cn4n3)ccc2Cl)n(C)n1,255
14,O=C(NCCCOc1ccncc1)c1ccccc1CO,108 to 109
15,COc1ccc2c(c1)c(CC(=O)OCC(=O)O)c(C)n2C(=O)c1ccc(C(F)(F)F)cc1,166 to 167
16,N#Cc1nc(-c2ccccc2)c(-c2ccccc2)nc1Cl,201 to 204
17,Cc1occc(=O)c1OCc1ccccc1,51 to 52
18,CN1C(=O)CC(Sc2cc(C(C)(C)C)c(O)c(C(C)(C)C)c2)C1=O (configuration not stated),132
19,COc1cc(N)c(Cl)cc1C(=O)NCC1CCN(CCCCC(=O)c2cn(C)c3ccccc23)CC1,87 to 89
20,Cc1oc2c(C)cc(C(=O)O)cc2c1C,235 to 237
21,CC1(NC2=NS(=O)(=O)c3sc(Cl)cc3N2)CCC1,294 to 296
22,C=CCOC(=O)c1ccc(NC(=O)c2ccc(OC)c(C34CC5CC(CC(C5)C3)C4)c2)cc1,191 to 192
23,C[C@@H]1NC(=O)OC1(C)C,60
24,CCCNC1=NS(=O)(=O)c2cc(C(F)(F)F)ccc2N1,241 to 243

row,Compound,melting point [°C]
1,Cc1ccc(C(N)(c2ccc3c(c2)C(c2cccc(Cl)c2)Nc2nnnn2-3)c2cncn2C)cc1 (configuration not stated),140
2,CN(CCSc1ccc(C=C2SC(=O)NC2=O)cc1)c1nc2ccccc2o1,189
3,CCCCCS(=O)(=O)NC(=O)CCCc1ccc(OCCOCC)cc1Oc1ncc(C(F)(F)F)cc1Cl,96 to 97
4,NCCNc1cc(-n2cccn2)nc(-c2ccco2)n1,104 to 105
5,COc1cc2c(c(OC(C)=O)c1)C1CCC3(C)C(=O)C(O)CC3C1CC2 (configuration not stated),228 to 231
6,O=C(O)C1CCCN1C(=O)CCc1cccc(-c2nc(=O)c3ccccc3s2)n1 (configuration not stated),210 to 211
7,COc1cc(C=Cc2cc(=O)n3cccc(C)c3n2)cc(OC)c1OC,208 to 210
8,N#CCC1NC(=O)C(Cc2ccccc2)NC1=O (configuration not stated),255 to 256
9,O=C1CCC(C=Cc2ccc(-n3ccnc3)cc2)=NN1,230 to 231
10,Cc1nc(N(C)C)sc1C(=O)c1ccc(N)c([N+](=O)[O-])c1,225 to 228
11,O=C1CNCCN1c1cccc([N+](=O)[O-])c1,137 to 139
12,Cc1ccccc1-c1ccc(C=O)cn1,82 to 84
13,Cc1ccc2c(c1)Oc1ncc(N)cc1C(=O)N2C,191 to 193
14,CCCCOC(=O)CN1CCC(NC(=O)OC(C)(C)C)CC1,116
15,CNC(=O)NNC(=S)N1N=C(c2ccc([N+](=O)[O-])cc2)c2cc3c(cc2CC1C)OCO3 (configuration not stated),200
16,CCCOC(=O)CCc1cc(S(C)(=O)=O)cc(-c2nc(=O)c3ccc(Cl)cc3s2)n1,235 to 236
17,CCOC(=O)c1ccc(-n2ccc(=O)cc2)cc1,178 to 180
18,COc1cc(Cl)ccc1-c1nc2cc3c(cc2[nH]1)C(C)(C)CC(=O)N3,300 to 303
19,COc1ccc(I)cc1CCCO,68 to 70
20,O=C1C(Br)CCN1c1ncc(C(F)(F)F)s1 (configuration not stated),105 to 106
21,OCc1csc(NC2CCCCC2)n1,118 to 120
22,COC(=O)COc1ccc(C(=O)CN2CCN(c3ccncc3)CC2=O)cc1,164 to 165
23,COc1cc2ncc(OC3CC4CC3C(O)C4O)nc2cc1OC (configuration not stated),85 to 88
24,O=C(Nc1ccc(-n2nc(C(F)(F)F)cc2C(F)(F)F)cc1)c1sccc1Br,139 to 140

row,Compound,melting point [°C]
1,CCc1ccccc1C(N)=NO,54 to 55
2,CCc1nnc(CCCOc2c(C)cc(-c3noc(C)n3)cc2C)s1,83 to 84
3,Cc1c(/C=C/C(=O)c2nn(C)c3ccccc23)ncn1C(c1ccccc1)(c1ccccc1)c1ccccc1,223 to 225
4,CCOC(=O)CCCn1c(=O)[nH]c2ccccc2c1=O,133 to 135
5,COC(=O)c1cc(-c2ccc(OC)cc2)nn(CCC#N)c1=O,141 to 143
6,O=C(/C=C/c1ccc2cc[nH]c2c1)CC(=O)/C=C/c1cc(O)ccc1Br,196 to 200
7,CC(=CC(=O)c1cccc(C(F)(F)F)c1)N(C)C,69 to 70
8,CCCCCCCCNC(=O)N1CCC(c2nc(N)nc3ccccc23)CC1,85 to 87
9,CCOC(=O)c1cn(-c2nncs2)c2nc(Cl)c(F)cc2c1=O,201 to 203
10,CC(=O)N1CCN(C2CCN(c3ccc(NC(=O)c4cnn(-c5ccc(Cl)cc5)c4C)cc3C#N)CC2)CC1,247
11,C=C(C)COc1ccc(Br)cc1CN(CC)c1ccc(-c2nnco2)nn1,90 to 92
12,CC1Oc2ccc(O)cc2C=C1C=O (configuration not stated),107 to 109
13,COc1cc(C(=O)N2CCC(C(=O)C3CCCCC3)CC2)c([N+](=O)[O-])cc1OC,120 to 125
14,CC(=O)c1ccc(-c2cnn3c(O)ncnc23)cc1,> 300
15,CC(=O)n1nc(CBr)c(Oc2cc(Cl)cc(C#N)c2)c1C,122 to 123
16,COc1cc(CN2C(=N)c3cc(-c4ccc(F)cc4F)ccc3S2(=O)=O)ccn1,173
17,Cc1nc(C)c(C(=O)Nc2ccc(-n3nc(C4CC4)cc3C3CC3)cc2)s1,98 to 114
18,CN(C)C(=O)c1ccc2c(c1)C(c1ncnc3cc(OCCCN4CCOCC4)ccc13)C(=O)N2 (configuration not stated),168 to 169
19,COc1ccc(Cn2cc[nH]c2=S)cc1F,156 to 157
20,CCC(CC)(CC(=O)Nc1cccc(OCc2ccc3ccc(C(F)(F)F)cc3n2)c1)C(=O)O,85 to 86
21,CC(C)(O)C(=O)Nc1c(C(=O)c2ccccc2)[nH]c2cc(Cl)ccc12,234 to 238
22,CC1C(=O)NCCN1C(=O)C(Cl)Cl (configuration not stated),167 to 168

# Results, then the compound that gave them:
row,melting point [°C],Compound
1,85 to 89,CCCCN1CCC(CCC(=O)c2ccc(N)nc2OC)CC1
2,88 to 89,Cc1ccnc2c1C(=O)CC(c1nccs1)C2 (configuration not stated)
3,173 to 175,O=C1N(Cc2ccc3c(c2)OCCO3)c2ccccc2C12COc1cc3c(cc12)CCO3 (configuration not stated)
4,198 to 205,COc1ccc(C(=O)Nc2c(Cl)cncc2Cl)c2c1OCC2CC(=O)OCc1ccccc1 (configuration not stated)
5,74.5 to 76,COC1(OCCc2nc(C(C)C)c(Sc3cc(Cl)cc(Cl)c3)n2C)C2CC3CC(C2)CC1C3 (configuration not stated)
6,70.5 to 70.6,COc1ccc2c(c1)CC(C)CC2=O (configuration not stated)
7,173 to 175,CN1C(=O)CC[C@]2(C)c3ccc(C=Cc4ccccc4)cc3CC[C@@H]12
8,177 to 179,CCOC(=O)c1c(-c2ccccc2)n(C)c(-c2ccccc2)cc1=O
9,138 to 140,Nc1cc(Br)nc(Cl)c1OC(F)F
10,159 to 161,COCCNC(=O)c1nc2cc(NC(=O)c3c(C(=O)N4CCC4)cnn3C)ccn2n1
11,78 to 80,OCC#Cc1ccccn1
12,224 to 227,C=CCNC1=NS(=O)(=O)c2cc(Cl)cnc2N1
13,189 to 191,O=C(Nc1cc(CCCS(=O)(=O)c2ccc(Cl)cc2)ccc1OCc1nnn[nH]1)c1cccc(OCc2nc3ccccc3s2)c1
14,215 to 217,O=C(O)c1cc([N+](=O)[O-])cc([N+](=O)[O-])c1Nc1cc(-c2ccccc2)ccc1O
15,105 to 108,Cc1nnc(OCC(F)(F)F)c(-c2c(F)cc(F)cc2F)c1-c1ccc(Cl)cc1
16,114 to 115,COc1ccc(C2=NN(C3CCCCCC3)C(=O)[C@H]3CC=CC[C@@H]23)c2c1OC(C)(C)C2 (relative stereo)

row,melting point [°C],Compound
1,248 to 250,O=C1CCC(N2Cc3c(NCc4ccco4)cccc3C2=O)C(=O)N1 (configuration not stated)
2,182 to 183,O=C(CN1C(=O)C(c2ccccc2)c2ccccc21)NCc1ccccc1 (configuration not stated)
3,156 to 160,CCCCCN1Cc2cccc(S(N)(=O)=O)c2S1(=O)=O
4,134 to 136,C=CCOc1ccc(C#N)c(O)c1
5,108,Cn1c(C2CC2)nc2c1CCCC2=O
6,195 to 197,NC(=O)C1CCC(NC(=O)NCc2ccc3c(c2)CN(C2CCC(=O)NC2=O)C3=O)CC1 (configuration not stated)
7,247 to 248,O=C(Nc1ccc(F)cc1F)Nc1cnc2cc3c(cc2c1-c1ccccc1Cl)CCC3
8,162 to 164,CNC(=S)NCCCCCCc1csc(NC(=N)N)n1
9,154 to 156,COc1cc(OC)c(C(=O)CC(=O)c2cc(OC)c(OC)c(OC)c2)cc1OC
10,84 to 86,COc1ccc2[nH]nc(N3CCN(C[C@@H](O)COc4cccc(-c5noc6ccsc56)c4)CC3)c2c1
11,197,O=c1[nH]c2ccccc2n1CCCN1CCN(C(c2ccc(F)cc2)c2ccc(F)cc2)CC1
12,98,Cc1c(Cl)cc(C(C)C)c(-c2c(C(C)C)cc(Cl)c(C)c2O)c1O
13,185,CC(C)c1ccc(N(Cc2cnn(C(C)C)c2)C(=O)C2CCCc3c(O)cccc32)cc1 (configuration not stated)
14,224 to 228,Clc1nnc(Cl)c2cc3ccccc3cc12
15,210 to 211,Cc1cccc(NC(=O)Nc2c(-c3ccccc3Cl)c3cc(C)c(C)cc3n(C)c2=O)c1
16,203 to 205,COc1ccc(Nc2nccc(-c3ccc(Cl)nc3)n2)cn1
